Results taken from patent publication US10201532B2, “Compounds and their use” (ALLECRA THERAPEUTICS GMBH, priority 2010, dated 2019).

Experiments:
[1] = tested on: KPC-2 producing K. pneumoniae (ATCC BAA-1705); experiment: Synergistic broth micro-dilution MIC (checkerboard); format: cell-based, Klebsiella pneumoniae; conditions: for MIC of Cefepime in combination with BLI / MIC of Cefotaxime in combination with BLI / MIC of Ceftazidime in combination with BLI / MIC of Ceftobiprole in combination with BLI / MIC of Imipenem in combination with BLI / MIC of Meropenem in combination with BLI / MIC of Aztreonam in combination with BLI / MIC of Ertapenem in combination with BLI / MIC of Faropenem in combination with BLI: ATCC BAA-1705
[2] = target: crude KPC-3 enzyme extract (UniProt Q9F663, H272Y, species not given); experiment: β-Lactamase inhibitory assay with CENTA substrate; format: biochemical; conditions: also headed KPC2
Source text: (§1) The Compound-1 was subjected to β-lactamase inhibitory assay to determine IC50 and to compare that with the comparator BLI agents as described elsewhere (Bebrone et. al., Antimicrob. Agents. Chemother, 2001, 45(6): 1868-1871; Jamieson et. al, Antimicrob. Agents. Chemother, 2003, 47(5): 1652-1657). Briefly, enzyme extracts from KPC-2 producing and KPC-3 expressing bacterial gram negative strains were used to study the β-lactamase inhibitory activity and determination of IC50 using CENTA as the substrate for β-lactamase.

[3] = target: T1, crude KPC-2 enzyme extract (Klebsiella pneumoniae, UniProt Q9F663); experiment: β-Lactamase inhibitory assay with CENTA substrate; format: biochemical
T1 construct: enzyme extracts from KPC-2 producing and KPC-3 expressing bacterial gram negative strains were used; endogenous in cells; host or cells: KPC-2 producing gram-negative strain
T1 sequence (Q9F663 25-293 limits assumed): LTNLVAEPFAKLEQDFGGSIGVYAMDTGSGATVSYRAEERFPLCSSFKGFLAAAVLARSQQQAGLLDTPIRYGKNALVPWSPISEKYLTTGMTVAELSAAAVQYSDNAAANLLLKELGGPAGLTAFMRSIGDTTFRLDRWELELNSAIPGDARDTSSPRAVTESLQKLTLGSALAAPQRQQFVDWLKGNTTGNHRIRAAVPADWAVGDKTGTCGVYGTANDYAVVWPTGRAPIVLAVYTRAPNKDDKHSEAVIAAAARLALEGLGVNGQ
Source text: as §1

[4] = tested on: KPC-3 expressing E. coli (J53 R6206); experiment: Synergistic broth micro-dilution MIC (checkerboard); format: cell-based, Escherichia coli

CC1(C)[C@H](C(=O)O)N2C(=O)C[C@H]2S1(=O)=O [Sulbactam]
MIC of Cefepime in combination with BLI ([1]; BLI at 2 μg/mL): >64 µg/mL
MIC of Cefotaxime in combination with BLI ([1]; BLI at 2 μg/mL): >64 µg/mL
MIC of Ceftazidime in combination with BLI ([1]; BLI at 2 μg/mL): >64 µg/mL
MIC of Ceftobiprole in combination with BLI ([1]; BLI at 2 μg/mL): >64 µg/mL
MIC of Imipenem in combination with BLI ([1]; BLI at 2 μg/mL): 16 to 32 µg/mL
MIC of Meropenem in combination with BLI ([1]; BLI at 2 μg/mL): 32 µg/mL
MIC of Aztreonam in combination with BLI ([1]; BLI at 4 μg/mL): >64 µg/mL
MIC of Cefepime in combination with BLI ([1]; BLI at 4 μg/mL): ≥64 µg/mL
MIC of Cefotaxime in combination with BLI ([1]; BLI at 4 μg/mL): >64 µg/mL
MIC of Ceftazidime in combination with BLI ([1]; BLI at 4 μg/mL): >64 µg/mL
MIC of Ceftobiprole in combination with BLI ([1]; BLI at 4 μg/mL): >64 µg/mL
MIC of Ertapenem in combination with BLI ([1]; BLI at 4 μg/mL): >64 µg/mL
MIC of Faropenem in combination with BLI ([1]; BLI at 4 μg/mL): >64 µg/mL
MIC of Imipenem in combination with BLI ([1]; BLI at 4 μg/mL): 16 to 32 µg/mL
MIC of Meropenem in combination with BLI ([1]; BLI at 4 μg/mL): 32 µg/mL
MIC of Cefepime in combination with BLI ([1]; BLI at 8 μg/mL): 64 µg/mL
MIC of Cefotaxime in combination with BLI ([1]; BLI at 8 μg/mL): 64 µg/mL
MIC of Ceftazidime in combination with BLI ([1]; BLI at 8 μg/mL): >64 µg/mL
MIC of Ceftobiprole in combination with BLI ([1]; BLI at 8 μg/mL): >64 µg/mL
MIC of Ertapenem in combination with BLI ([1]; BLI at 8 μg/mL): >64 µg/mL
MIC of Faropenem in combination with BLI ([1]; BLI at 8 μg/mL): >64 µg/mL
MIC of Imipenem in combination with BLI ([1]; BLI at 8 μg/mL): 16 µg/mL
MIC of Meropenem in combination with BLI ([1]; BLI at 8 μg/mL): 32 µg/mL
MIC of Aztreonam in combination with BLI ([1]; BLI at 16 μg/mL): >64 µg/mL
MIC of Cefepime in combination with BLI ([1]; BLI at 16 μg/mL): 64 µg/mL
MIC of Cefotaxime in combination with BLI ([1]; BLI at 16 μg/mL): 32 µg/mL
MIC of Ceftazidime in combination with BLI ([1]; BLI at 16 μg/mL): >64 µg/mL
MIC of Ceftobiprole in combination with BLI ([1]; BLI at 16 μg/mL): >64 µg/mL
MIC of Ertapenem in combination with BLI ([1]; BLI at 16 μg/mL): >64 µg/mL
MIC of Faropenem in combination with BLI ([1]; BLI at 16 μg/mL): >64 µg/mL
MIC of Imipenem in combination with BLI ([1]; BLI at 16 μg/mL): 8 µg/mL
MIC of Meropenem in combination with BLI ([1]; BLI at 16 μg/mL): 32 µg/mL
MIC of Aztreonam in combination with BLI ([1]; BLI at 64 μg/mL): >64 µg/mL
MIC of Cefepime in combination with BLI ([1]; BLI at 64 μg/mL): 64 µg/mL
MIC of Cefotaxime in combination with BLI ([1]; BLI at 64 μg/mL): 32 µg/mL
MIC of Ceftazidime in combination with BLI ([1]; BLI at 64 μg/mL): 64 µg/mL
MIC of Ceftobiprole in combination with BLI ([1]; BLI at 64 μg/mL): >64 µg/mL
MIC of Ertapenem in combination with BLI ([1]; BLI at 64 μg/mL): 64 µg/mL
MIC of Faropenem in combination with BLI ([1]; BLI at 64 μg/mL): >64 µg/mL
MIC of Imipenem in combination with BLI ([1]; BLI at 64 μg/mL): 8 µg/mL
MIC of Meropenem in combination with BLI ([1]; BLI at 64 μg/mL): 16 µg/mL
MIC ([1]; Klebsiella pneumoniae, ATCCBAA1705, read-out: MIC of BLI alone): > 64 µg/mL
IC50 [2]: 235 µM
IC50 [3]: 1400 µM
MIC of Cefepime in combination with BLI ([4]; BLI at 2 μg/mL): 16 µg/mL
MIC of Cefotaxime in combination with BLI ([4]; BLI at 2 μg/mL): >32 µg/mL
MIC of Ceftazidime in combination with BLI ([4]; BLI at 2 μg/mL): 32 µg/mL
MIC of Ceftobiprole in combination with BLI ([4]; BLI at 2 μg/mL): 32 µg/mL
MIC of Imipenem in combination with BLI ([4]; BLI at 2 μg/mL): 4 µg/mL
MIC of Meropenem in combination with BLI ([4]; BLI at 2 μg/mL): 2 µg/mL
MIC of Cefepime in combination with BLI ([4]; BLI at 4 μg/mL): 16 µg/mL
MIC of Cefotaxime in combination with BLI ([4]; BLI at 4 μg/mL): 16 µg/mL
MIC of Ceftazidime in combination with BLI ([4]; BLI at 4 μg/mL): 32 µg/mL
MIC of Ceftobiprole in combination with BLI ([4]; BLI at 4 μg/mL): 32 µg/mL
MIC of Imipenem in combination with BLI ([4]; BLI at 4 μg/mL): 2 µg/mL
MIC of Meropenem in combination with BLI ([4]; BLI at 4 μg/mL): 1 µg/mL
MIC of Cefepime in combination with BLI ([4]; BLI at 8 μg/mL): 8 µg/mL
MIC of Cefotaxime in combination with BLI ([4]; BLI at 8 μg/mL): 8 µg/mL
MIC of Ceftazidime in combination with BLI ([4]; BLI at 8 μg/mL): 32 µg/mL
MIC of Ceftobiprole in combination with BLI ([4]; BLI at 8 μg/mL): 16 µg/mL
MIC of Imipenem in combination with BLI ([4]; BLI at 8 μg/mL): 2 µg/mL
MIC of Meropenem in combination with BLI ([4]; BLI at 8 μg/mL): 1 µg/mL
MIC ([4]; Escherichia coli, read-out: MIC of BLI alone, BLI alone): > 8 µg/mL
